# In patent US20250228235A1, “METHODS TO IMPROVE ORRGAN VIABILITY” (Mallinckrodt Pharmaceuticals Ireland Limited, priority 2017, published 2025):
# Legend:
# [1] = test system: cerebral mitochondrial function (cortical and hippocampal tissue); test: High-resolution respirometry of cortical and hippocampal tissue to assess mitochondrial function after cardiac arrest; type: in vivo, swine; settings: iNO 20 ppm vs placebo
# From the text: (§1) Neurologic injury following pediatric cardiac arrest (CA) remains common. Inhaled nitric oxide (iNO) may mitigate cerebral mitochondrial dysfunction, a critical convergence point for secondary brain injury, triggered by CA. It was hypothesized that following asphyxia and cardiac arrest, animals treated with 20 ppm iNO during CPR and four hours post-return of spontaneous circulation (ROSC) will have improved cerebral blood flow (CBF) and improved mitochondrial function as defined by increased respiratory control ratio (RCR) and decreased mitochondrial reactive oxygen species (mtROS) compared with placebo.
# (§2) 4-week-old swine received 7 minutes of asphyxia, then ventricular fibrillation. Guideline CPR was performed with compression depth (CD)≥⅓ of the chest diameter and standard epinephrine continued for 10 mins or until ROSC, with protocolized post-ROSC care. In a blinded fashion, subjects were randomized (iNO 20 ppm initiated 1 minute into CPR period, n=10, or placebo, n=10). […] Baseline and continuous CBF measurements were taken using invasive clinical and non-invasive optical instrumentation. Cortical and hippocampal tissue were analyzed by high-resolution respirometry to assess mitochondrial function. T-tests and ANOVA were used where applicable. Longitudinal hemodynamic variables were compared using generalized estimating equations to control for within-subject correlation.
# 4-week-old swine = test: Blinded, randomized, controlled pediatric swine asphyxial model of cardiac arrest (survival, cerebral blood flow, hemodynamics); type: in vivo
# From the text: as §1, §2
structure (smiles),measurement,setting,value
"[N]=O [iNO, nitric oxide]","mtROS generation, cortex","[1]; cortex, p<0.001",significantly lower
same,Cortex RCR (respiratory control ratio),"[1]; cortex, p=0.04",significantly higher
same,hippocampal RCR (respiratory control ratio),"[1]; hippocampus, p=0.007",significantly higher
same,"mtROS generation, hippocampus","[1]; hippocampus, p=0.03",significantly lower
same,invasive or noninvasive CBF (cerebral blood flow),"4-week-old swine; during CPR and post-ROSC, iNO 20 ppm vs placebo",no significant differences
same,survived,"4-week-old swine; iNO 20 ppm initiated 1 minute into CPR, n=10, placebo 7/10, p=0.21",10/10
